The text below walks through data of US20240374551A1, “ENTERO-ANTISEPTIC FOR THE TREATMENT OF GASTROINTESTINAL INFECTIONS IN HUMANS” (priority 2023, published 2024).

Series [1] deals with Listeria. Kind of series: Zone diameter on Müler-Hinton-Agar. Type of series: cell-based.
Series [2] has as its system Staphylococcus aureus. Kind of series: Zone diameter on Müler-Hinton-Agar. In kind it is cell-based.
The test system of series [3] is Escherichia coli 0157H5. Kind of series: Zone diameter on Müler-Hinton-Agar. In kind it is cell-based.
Series [4] has as its system Vibrio. Kind of series: Zone diameter on Müler-Hinton-Agar. Type of series: cell-based.
Series [5] relates to Yersinia. In kind it is cell-based. The note with it: Müler-Hinton-Agar.
For series [6], the system named is Streptococcus pyogenes. Kind of series: Zone diameter on Müler-Hinton-Agar. In kind it is cell-based.
For series [7], the system named is Streptococcus uberis. The series can be described thus: Zone diameter on Müler-Hinton-Agar. Type of series: cell-based.
Series [8] deals with Salmonella typhimurium DT104. Kind of series: Zone diameter on Müler-Hinton-Agar. In kind it is cell-based.
Series [9] has as its system Shigella. Kind of series: Zone diameter on Müler-Hinton-Agar. In kind it is cell-based.
Series [10] has as its system Campylobacter. Kind of series: Zone diameter on Müler-Hinton-Agar. Type of series: cell-based.
Series [11] has as its system Listeria monocytogenes. Kind of series: Zone diameter on Müler-Hinton-Agar. Type of series: cell-based.
Series [12] concerns Streptococcus pneumonia. The series can be described thus: Zone diameter on Müler-Hinton-Agar. In kind it is cell-based.
The subject of series [13] is Salmonella. Kind of series: Zone diameter on Müler-Hinton-Agar. In kind it is cell-based.
Series [14] relates to bacteria. The series can be described thus: In vitro studies of bactericide effect versus Thymol and Carvacrol. Type of series: cell-based.
Series [15] has as its system mammalian cells. Kind of series: Pilot test of effect on mitotic cell division. The note with it: compound in tablet form.
For series [16], the system named is white lab rats. The series can be described thus: Acute toxicity, oral LD50 p.o., rats.
Series [17] has as its system white lab mice. The series can be described thus: Acute toxicity, parenteral intraperitoneal LD50 i.p., mice. The note with it: mouse, in vivo.
For series [18], the system named is white lab rats. Kind of series: Acute toxicity, parenteral intraperitoneal LD50 i.p., rats.
For series [19], the system named is white lab mice. Kind of series: Acute toxicity, oral LD50 p.o., mice.
The nature of series [20]: Clinical pilot study on side effects, 60 humans. Type of series: in vivo. As to conditions: 250 mg/30 kg body weight every 12 h for 7 days. The method, then: The reason for this testing was to check if the compound tablets, after a longer period of use, can cause any eventual side effects.
The test results were generated and monitored to obtain the relevant information and facts. In this study, the general monitored parameters were: pulse, breathing, ECG (Electrocardiography), discomfort, adverse events, and/or allergy monitoring. These parameters were measured before the treatment with the compound and 15 min after its intake. The compound was ingested on the therapeutic days in each patient at 8.00 AM and 8.00 PM CET (paragraph [0034] and paragraph [0035]). After The compound had been consumed, the physician made observations for 30 min. The patients' feelings during and after the compound intake were also recorded for each participant.
As part of the biochemical analysis of patients' blood, each patient's blood sample was checked for biochemical parameters. Blood samples were taken from each patient before the beginning of the test, on the 4th day from the tests beginning, and on the 8th day from the tests beginning. […] The biochemical parameters that were measured in blood samples include: • 1. Liver status • 2. C Reactive protein • 3. Kidney status
The dose was: 250 mg of the compound/30 kg of the body weight every 12 h for seven (7) days (paragraph [0034] and paragraph [0035]). […]

With `CC1(C)S[C@@H]2[C@H](NC(=O)[C@H](N)c3ccccc3)C(=O)N2[C@H]1C(=O)O` [Ampicillin], the “R (evaluation by zone diameter)” value is “R (0 mm-4 mm: resistant: R)” in [1]; “R (0 mm-4 mm: resistant: R)” in [2]; “MS (5 mm-9 mm: moderately sensitive: MS)” in [3]; “R (0 mm-4 mm: resistant: R)” in [4]; “R (0 mm-4 mm: resistant: R)” in series [5]; “R (0 mm-4 mm: resistant: R)” in series [6]. Besides, the “R (evaluation by zone diameter)” value is recorded as “R (0 mm-4 mm: resistant: R)” in series [7]; “MS (5 mm-9 mm: moderately sensitive: MS)” in [8]; “MS (5 mm-9 mm: moderately sensitive: MS)” in [9]; “R (0 mm-4 mm: resistant: R)” in series [10]; “MS (5 mm-9 mm: moderately sensitive: MS)” in series [11]; “R (0 mm-4 mm: resistant: R)” in series [12]. Also, in [13], the “R (evaluation by zone diameter)” value was “MS (5 mm-9 mm: moderately sensitive: MS)”.
As to “2-(2-isopropyl-5-methylphenoxy)-2-oxoethan-1-aminium 2-isopropyl-5methylphenolate [The novel compound]”, the “bactericide effect compared with Thymol and Carvacrol” value in series [14] is “more effective and faster bactericide effect than existing Thymol and Carvacrol”. For the same molecule, the “effect on mitotic cell division” value in series [15] is “no negative effects were diagnosed”. The “R (evaluation by zone diameter)” value in series [1] is “ES (21 mm and more: extremely sensitive: ES)”; in series [2], “ES (21 mm and more: extremely sensitive: ES)”; in series [3], “ES (21 mm and more: extremely sensitive: ES)”; in [4], “ES (21 mm and more: extremely sensitive: ES)”; in [5], “ES (21 mm and more: extremely sensitive: ES)”; in [6], “ES (21 mm and more: extremely sensitive: ES)”. The “R (evaluation by zone diameter)” value in series [7] is “ES (21 mm and more: extremely sensitive: ES)”; in [8], “ES (21 mm and more: extremely sensitive: ES)”; in [9], “ES (21 mm and more: extremely sensitive: ES)”; in series [10], “ES (21 mm and more: extremely sensitive: ES)”; in [11] it was “ES (21 mm and more: extremely sensitive: ES)”; in series [12], “ES (21 mm and more: extremely sensitive: ES)”. The “R (evaluation by zone diameter)” value in series [13] is “ES (21 mm and more: extremely sensitive: ES)”. For the same molecule, the “rats that changed their behavior and demonstrated light discomfort” value in series [16] (out of 100 rats, oral dose 2,500 mg/kg) stood at 37. In addition, the “time after which discomfort symptoms disappeared” value lay in the range of 1 to 3 min in series [16] (rats, p.o., 2,500 mg/kg); 3 to 5 min in series [17]; 5 to 6 min in series [18] (rats, i.p., 2,500 mg/kg); 1 to 3 min in series [19] (mice, p.o., 2,000 mg/kg). For the same molecule, the “mice that changed their behavior and demonstrated discomfort” value in series [17] is 27. For the same molecule, in series [18] (out of 100 rats, i.p. dose 2,500 mg/kg), the “rats that changed their behavior and demonstrated discomfort” value was 35. Also, in series [19] (out of 100 mice, oral dose 2,000 mg/kg), the “mice that changed their behavior and demonstrated light discomfort” value is 21. Also, the allergy symptoms entry in series [20] is “no allergy symptoms”. Besides, in series [20], the tolerance entry is “showed tolerance”.
